Results: ChEMBL document CHEMBL5154900, “Design and Synthesis of Dual EZH2/BRD4 Inhibitors to Target Solid Tumors” (J Med Chem, 2022)
Calls of active or inactive are those of the source. No cut-off for these calls is given here.

Key:
[1] = target: T1, Bromodomain-containing protein 4 (Homo sapiens, UniProt O60885); assay: Inhibition of BRD4 in human ASPC1 cells assessed as decrease in c-Myc level at 1 uM incubated for 72 hrs by Western blot analysis; type: cell-based
[2] = target: T2, Histone-lysine N-methyltransferase EZH2 (Homo sapiens, UniProt Q15910)
Target sequence in this assay (Q15910 whole entry, the tested form may be a part): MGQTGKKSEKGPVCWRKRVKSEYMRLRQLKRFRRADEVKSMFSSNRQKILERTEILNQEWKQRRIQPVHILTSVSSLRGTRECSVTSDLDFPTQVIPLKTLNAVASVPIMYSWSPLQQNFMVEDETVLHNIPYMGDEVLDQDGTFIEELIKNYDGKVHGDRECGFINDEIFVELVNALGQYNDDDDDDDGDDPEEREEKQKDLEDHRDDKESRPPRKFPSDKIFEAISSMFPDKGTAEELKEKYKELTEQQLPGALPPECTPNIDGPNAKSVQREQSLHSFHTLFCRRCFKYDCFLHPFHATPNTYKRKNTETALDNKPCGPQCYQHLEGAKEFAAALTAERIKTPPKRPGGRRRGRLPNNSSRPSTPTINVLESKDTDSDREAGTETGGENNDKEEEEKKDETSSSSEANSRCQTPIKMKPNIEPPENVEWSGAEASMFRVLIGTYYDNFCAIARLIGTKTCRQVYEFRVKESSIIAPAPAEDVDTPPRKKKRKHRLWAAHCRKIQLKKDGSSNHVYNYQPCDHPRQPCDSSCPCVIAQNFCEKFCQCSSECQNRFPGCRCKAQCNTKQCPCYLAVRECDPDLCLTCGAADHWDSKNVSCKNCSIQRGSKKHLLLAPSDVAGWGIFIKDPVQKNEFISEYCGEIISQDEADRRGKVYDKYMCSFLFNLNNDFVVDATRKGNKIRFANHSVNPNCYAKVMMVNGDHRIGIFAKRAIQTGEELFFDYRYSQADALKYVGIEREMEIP

[3] = target: T1, Bromodomain-containing protein 4; assay: Displacement of fluorescein-labeled JQ1 from His6/TEV cleavage site fused human BRD4 (residues N44 to E168) expressed in Escherichia coli BL21 (DE3) incubated for 60 min by Fluorescence polarization assay
ASPC1 = assay: Antiproliferative activity against human ASPC1 cells assessed as cell growth inhibition incubated for 6 days by MTS assay; type: functional, cell-based; settings: ASPC1, 144 h
[4] = target: T2, Histone-lysine N-methyltransferase EZH2; assay: Inhibition of EZH2 in human ASPC1 cells assessed as decrease in H3K27me3 levels at 1 uM incubated for 72 hrs by Western blot analysis; type: cell-based
Target sequence in this assay (Q15910 whole entry, looked up, the tested form may be a part): as the sequence (Q15910 whole entry, the tested form may be a part) above

HCT-116 = assay: Induction of apoptosis in human HCT116 cells assessed as early apoptotic cells at 10 uM measured after 72 hrs by flow cytometry (reference value: 2.8 %); type: functional

Structure (SMILES)	inhibition [1]	IC50 [2]	IC50 [3]	IC50 (ASPC1; read-out: IC50)	inhibition [4]	Activity (HCT-116)	IC50 (ASPC1)
CCN(c1cc(-c2ccc(OCCCCNC(=O)C[C@@H]3N=C(c4ccc(Cl)cc4)c4c(sc(C)c4C)-n4c(C)nnc43)cc2)cc(C(=O)NCc2c(C)cc(C)[nH]c2=O)c1C)C1CCOCC1	Active	0.42 µM	0.082 µM	0.99 µM	Active	–	–
CCN(c1cc(-c2ccc(C(=O)NCCOCCNC(=O)C[C@@H]3N=C(c4ccc(Cl)cc4)c4c(sc(C)c4C)-n4c(C)nnc43)cc2)cc(C(=O)NCc2c(C)cc(C)[nH]c2=O)c1C)C1CCOCC1	–	0.3 µM	0.248 µM	7.09 µM	Active	–	–
CCN(c1cc(-c2ccc(NC(=O)CCCCCCNC(=O)C[C@@H]3N=C(c4ccc(Cl)cc4)c4c(sc(C)c4C)-n4c(C)nnc43)cc2)cc(C(=O)NCc2c(C)cc(C)[nH]c2=O)c1C)C1CCOCC1	–	0.53 µM	0.58 µM	11.2 µM	–	–	–
CCN(c1cc(-c2ccc(CCNC(=O)C[C@@H]3N=C(c4ccc(Cl)cc4)c4c(sc(C)c4C)-n4c(C)nnc43)cc2)cc(C(=O)NCc2c(C)cc(C)[nH]c2=O)c1C)C1CCOCC1	–	77.8 µM	0.945 µM	2.61 µM	Active	–	–
CCN(c1cc(-c2ccc(OCCCNC(=O)C[C@@H]3N=C(c4ccc(Cl)cc4)c4c(sc(C)c4C)-n4c(C)nnc43)cc2)cc(C(=O)NCc2c(C)cc(C)[nH]c2=O)c1C)C1CCOCC1	Active	0.98 µM	1.72 µM	1.37 µM	–	–	–
CCN(c1cc(-c2ccc(NC(=O)CCCCCCCNC(=O)C[C@@H]3N=C(c4ccc(Cl)cc4)c4c(sc(C)c4C)-n4c(C)nnc43)cc2)cc(C(=O)NCc2c(C)cc(C)[nH]c2=O)c1C)C1CCOCC1	–	0.55 µM	2.34 µM	17.5 µM	–	–	–
CCN(c1cc(-c2ccc(CN3CCOCC3)cc2)cc(C(=O)NCc2c(C)cc(C)[nH]c2=O)c1C)C1CCOCC1 [TAZEMETOSTAT]	–	–	–	> 30 µM	–	2.8%	–
CCN(c1cc(-c2ccc(NC(=O)CCOCCOCCOCCNC(=O)C[C@@H]3N=C(c4ccc(Cl)cc4)c4c(sc(C)c4C)-n4c(C)nnc43)cc2)cc(C(=O)NCc2c(C)cc(C)[nH]c2=O)c1C)C1CCOCC1	–	1.04 µM	0.604 µM	9.25 µM	–	–	–
CCN(c1cc(-c2ccc(OCCNC(=O)C[C@@H]3N=C(c4ccc(Cl)cc4)c4c(sc(C)c4C)-n4c(C)nnc43)cc2)cc(C(=O)NCc2c(C)cc(C)[nH]c2=O)c1C)C1CCOCC1	Active	7.55 µM	1.54 µM	1.86 µM	–	–	–
CCN(c1cc(-c2ccc(NC(=O)C[C@@H]3N=C(c4ccc(Cl)cc4)c4c(sc(C)c4C)-n4c(C)nnc43)cc2)cc(C(=O)NCc2c(C)cc(C)[nH]c2=O)c1C)C1CCOCC1	–	16.1 µM	2.84 µM	13.8 µM	–	–	–
Cc1sc2c(c1C)C(c1ccc(Cl)cc1)=N[C@@H](CC(=O)OC(C)(C)C)c1nnc(C)n1-2	–	–	–	–	–	20.3%	3.39 µM
CCN(c1cc(-c2ccc(CNC(=O)C[C@@H]3N=C(c4ccc(Cl)cc4)c4c(sc(C)c4C)-n4c(C)nnc43)cc2)cc(C(=O)NCc2c(C)cc(C)[nH]c2=O)c1C)C1CCOCC1	–	29.8 µM	1.48 µM	6.5 µM	Active	–	–
